In patent publication US20130252930A1 (BIOMARIN PHARMACEUTICAL INC., priority 2010, published 2013):
Like-named read-outs stand apart in the source and are kept apart here.

Columns and labels:
[1] = Human liver microsome stability assay (Biological Example 8b); settings: liver microsomes, pH 7.4
Experimental: The reaction was started with addition of excess NADPH (5 mg/mL, 15 μL in 0.1 M potassium phosphate buffer, 1.0 mM EDTA, pH 7.4), the total volume is 45 μL (compound final concentration was 1 μM). […] 50 μL of the supernatant was transferred from each well into a 96-well sample plate containing 50 μL of ultra-pure water (Millipore) for LC-MS/MS analysis.

[2] = target: T1, CYP17 (human testicular microsome) (Homo sapiens, UniProt P05093); assay: CYP17 enzymatic assay (% inhibition at 1 nM) (Biological Example 12); assay type: biochemical; settings: compound at 1 nM
T1 construct: using microsomal fraction from human testis (Celsis Cat #S00110) as the enzyme source; tissue Celsis S00110; host or cells: human testis microsomal fraction
T1 sequence (P05093 1-508): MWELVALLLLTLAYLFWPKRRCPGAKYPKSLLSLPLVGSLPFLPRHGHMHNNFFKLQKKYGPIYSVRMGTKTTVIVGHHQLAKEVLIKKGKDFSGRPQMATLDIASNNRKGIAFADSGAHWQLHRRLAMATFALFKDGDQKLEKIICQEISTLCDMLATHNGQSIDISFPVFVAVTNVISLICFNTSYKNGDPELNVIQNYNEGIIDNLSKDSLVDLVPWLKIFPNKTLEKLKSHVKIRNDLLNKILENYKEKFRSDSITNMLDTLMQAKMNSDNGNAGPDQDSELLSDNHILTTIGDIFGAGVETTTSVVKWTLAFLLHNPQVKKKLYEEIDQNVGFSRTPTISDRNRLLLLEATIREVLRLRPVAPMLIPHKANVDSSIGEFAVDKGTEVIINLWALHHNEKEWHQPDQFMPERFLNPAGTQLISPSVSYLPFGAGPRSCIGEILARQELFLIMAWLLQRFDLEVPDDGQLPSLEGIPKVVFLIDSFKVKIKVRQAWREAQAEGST

[3] = target: T1, CYP17 (human testicular microsome); assay: CYP17 enzymatic assay (IC50) (Biological Example 4); assay type: biochemical; settings: human testicular microsome
[4] = target: T2, Cyp21 enzyme (Human HEK 293-Cyp21 stable transfected cells) (Homo sapiens, UniProt P08686); assay: CYP21-HEK293 enzymatic assay (IC50) (Biological Example 11); assay type: cell-based
T2 construct: expressed in transfected cells
T2 sequence (P08686 1-495): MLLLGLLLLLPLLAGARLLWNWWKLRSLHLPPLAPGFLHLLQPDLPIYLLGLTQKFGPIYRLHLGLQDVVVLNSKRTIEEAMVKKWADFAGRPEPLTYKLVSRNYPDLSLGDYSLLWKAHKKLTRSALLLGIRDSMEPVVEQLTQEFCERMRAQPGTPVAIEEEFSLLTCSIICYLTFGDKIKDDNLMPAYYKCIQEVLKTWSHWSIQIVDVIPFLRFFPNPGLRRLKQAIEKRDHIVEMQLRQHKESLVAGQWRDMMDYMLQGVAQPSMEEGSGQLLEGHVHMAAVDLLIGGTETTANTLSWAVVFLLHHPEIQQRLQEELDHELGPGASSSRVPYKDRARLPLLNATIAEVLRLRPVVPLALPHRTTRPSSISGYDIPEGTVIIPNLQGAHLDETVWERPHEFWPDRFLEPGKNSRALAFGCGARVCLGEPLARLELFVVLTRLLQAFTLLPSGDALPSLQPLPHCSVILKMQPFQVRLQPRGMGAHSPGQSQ

[5] = read-out: CYP17 enzymatic assay % inhibition at 1 nM (Biological Example No. 12)
[6] = HEK 293-Cyp21 cells, read-out: CYP21-HEK293 enzymatic assay IC50 (Biological Example No. 11)
[7] = read-out: Biological Example No. 12: CYP17 enzymatic assay % inhibition at 1 nM
[8] = HEK 293-Cyp21 cells, read-out: Biological Example No. 11: CYP21-HEK293 enzymatic assay IC50
[9] = read-out: Biological Example No. 4: CYP17 enzymatic assay IC50
[10] = HEK 293-Cyp21 stable transfected cells, read-out: CYP21-HEK293 enzymatic assay IC50 (Biological Example No. 11)

Compound | half-life at 1 μM [1] [min] | inhibition at 0.001 µM [2, 7] [%] | IC50 [4, 8] [nM] | other results
C[C@]12CC[C@H]3[C@@H](C=CC4=CC(=O)CC[C@@]43C)C1=CC=C2c1cccnc1 [Compound 289, (10R,13S)-10,13-dimethyl-17-(pyridin-3-yl)-8,9,10,11,12,13-hexahydro-1H-cyclopenta[a]phenanthren-3(2H)-one] | 1 to 50 | – | – | inhibition at 0.001 µM [2, 5]: > 50%; IC50 ([3]; read-out: CYP17 enzymatic assay IC50 (Biological Example No. 4)): < 11 nM; IC50 [4, 6]: 10 to 100 nM
C[C@]12CCC3C(CCC4=CC(=O)CC[C@@]43C)C1=CC=C2c1cnccn1 (stereo partly drawn) [Compound 291, (10R,13S)-10,13-dimethyl-17-(pyrazin-2-yl)-6,7,8,9,10,11,12,13-octahydro-1H-cyclopenta[a]phenanthren-3(2H)-one] | 1 to 50 | – | – | inhibition at 0.001 µM [2, 5]: > 50%; IC50 [4, 6]: > 100 nM
C[C@]12CCC3C(C=CC4=C(O)C(=O)CC[C@@]43C)C1=CC=C2c1cccnc1 (stereo partly drawn) [Compound 297, (10R,13S)-4-hydroxy-10,13-dimethyl-17-(pyridin-3-yl)-8,9,10,11,12,13-hexahydro-1H-cyclopenta[a]phenanthren-3(2H)-one] | 1 to 50 | – | – | inhibition at 0.001 µM [2, 5]: > 50%; IC50 [4, 6]: > 100 nM
C[C@]12CCC(=O)C(O)=C1C=C[C@@H]1[C@@H]2CC[C@]2(C)C(c3cccnc3)=CC[C@@H]12 [Compound 301, (10R,13S)-4-hydroxy-10,13-dimethyl-17-(pyridin-3-yl)-8,9,10,11,12,13,14,15-octahydro-1H-cyclopenta[a]phenanthren-3(2H)-one] | 1 to 50 | – | – | inhibition at 0.001 µM [2, 5]: > 50%; IC50 [4, 6]: > 1000 nM
C[C@]12CCC(=O)C=C1C1CC1[C@@H]1[C@@H]2CC[C@]2(C)C(c3cccnc3)=CC[C@@H]12 (stereo partly drawn) [Compound 319, (4aR,6aS)-4a,6a-dimethyl-7-(pyridin-3-yl)-4,4a,4b,5,6,6a,9,9a,9b,9c,10,10a-dodecahydrocyclopenta[a]cyclopropa[l]phenanthren-2(3H)-one] | 1 to 50 | > 50 | > 100 | –
C[C@]12CC[C@H]3[C@@H](CC(CO)C4=CC(=O)CC[C@@]43C)C1=CC=C2c1cccnc1 (stereo partly drawn) [Compound 340, (10R,13S)-6-(hydroxymethyl)-10,13-dimethyl-17-(pyridin-3-yl)-6,7,8,9,10,11,12,13-octahydro-1H-cyclopenta[a]phenanthren-3(2H)-one] | – | > 50 | > 100 | IC50 [3, 9]: < 11 nM
CC1C[C@@H]2[C@H](CC[C@]3(C)C(c4cncc(F)c4)=CC[C@@H]23)[C@@]2(C)C=CC(=O)C=C12 (stereo partly drawn) [Compound 345, (10R,13S)-17-(5-fluoropyridin-3-yl)-6,10,13-trimethyl-6,7,8,9,10,11,12,13,14,15-decahydro-3H-cyclopenta[a]phenanthren-3-one] | – | > 50 | 10 to 100 | IC50 [3, 9]: < 11 nM
C=C1C[C@H]2C3=CC=C(c4cccnc4)[C@@]3(C)CC[C@@H]2[C@@]2(C)C=CC(=O)C=C12 [Compound 350, (10R,13S)-10,13-dimethyl-6-methylene-17-(pyridin-3-yl)-6,7,8,9,10,11,12,13-octahydro-3H-cyclopenta[a]phenanthren-3-one] | 1 to 50 | – | – | IC50 [4, 10]: < 10 nM
CC1CC2C(CC[C@]3(C)C(c4cccnc4)=CCC23)[C@@]2(C)CCC(=NO)C=C12 (stereo partly drawn) [Compound 361, (10R,13S)-6,10,13-trimethyl-17-(pyridin-3-yl)-6,7,8,9,10,11,12,13,14,15-decahydro-1H-cyclopenta[a]phenanthren-3(2H)-one oxime] | 1 to 50 | 10 to 50 | > 100 | –
CC1CC2C3=CC=C(c4cncc(F)c4)[C@@]3(C)CCC2[C@@]2(C)CCNC(=O)C=C12 (stereo partly drawn) [Compound 389, (5aR,7aS)-8-(5-fluoropyridin-3-yl)-5a,7a,12-trimethyl-3,4,5,5a,5b,6,7,7a,11,12-decahydrocyclopenta[5,6]naphtho[1,2-d]azepin-2(10bH)-one] | 1 to 50 | 10 to 50 | 10 to 100 | –
C[C@]12CCC3C(CCC4=CC(=O)NCC[C@@]43C)C1=CC=C2c1cncc(C(F)F)c1 (stereo partly drawn) [Compound 390, (5aR,7aS)-8-(5-(difluoromethyl)pyridin-3-yl)-5a,7a-dimethyl-3,4,5,5a,5b,6,7,7a,11,12-decahydrocyclopenta[5,6]naphtho[1,2-d]azepin-2(10bH)-one] | – | > 50 | > 1000 | IC50 [3, 9]: < 11 nM
CC1CC2C3=CC=C(c4cncc(C(F)F)c4)[C@@]3(C)CCC2[C@@]2(C)CCNC(=O)C=C12 (stereo partly drawn) [Compound 391, (5aR,7aS)-8-(5-(difluoromethyl)pyridin-3-yl)-5a,7a,12-trimethyl-3,4,5,5a,5b,6,7,7a,11,12-decahydrocyclopenta[5,6]naphtho[1,2-d]azepin-2(10bH)-one] | – | < 10 | > 1000 | –
CC1C[C@@H]2[C@H](CC[C@]3(C)C(c4cccnc4)CC[C@@H]23)[C@@]2(C)CCNC(=O)C=C12 (stereo partly drawn) [Compound 395, (5aR,7aS)-5a,7a,12-trimethyl-8-(pyridin-3-yl)-3,4,5,5a,5b,6,7,7a,8,9,10,10a,11,12-tetradecahydrocyclopenta[5,6]naphtho[1,2-d]azepin-2(10bH)-one] | 1 to 50 | – | – | IC50 [4, 10]: < 10 nM
C[C@]12CCC(=O)C=C1C=CC1C2CC[C@]2(C)C(c3cccnc3)=CCC12 (stereo partly drawn) [Compound 408, (10R,13S)-10,13-dimethyl-17-(pyridin-3-yl)-8,9,10,11,12,13,14,15-octahydro-1H-cyclopenta[a]phenanthren-3(2H)-one] | 1 to 50 | > 50 | > 100 | –
C[C@]12CCC(=O)C=C1C(=O)CC1C2CC[C@]2(C)C(c3cncc(F)c3)=CCC12 (stereo partly drawn) [Compound 417, (10R,13S)-17-(5-fluoropyridin-3-yl)-10,13-dimethyl-7,8,9,11,12,13,14,15-octahydro-1H-cyclopenta[a]phenanthrene-3,6(2H,10H)-dione] | – | > 50 | > 1000 | IC50 [3, 9]: < 11 nM
C[C@]12CCC(=O)CC1C(=O)CC1C2CC[C@]2(C)C(c3cncc(F)c3)=CCC12 (stereo partly drawn) [Compound 418, (10R,13S)-17-(5-fluoropyridin-3-yl)-10,13-dimethyl-4,5,7,8,9,11,12,13,14,15-decahydro-1H-cyclopenta[a]phenanthrene-3,6(2H,10H)-dione] | – | > 50 | > 1000 | IC50 [3, 9]: < 11 nM
CC1C[C@@H]2[C@H](CC[C@]3(C)C(c4cccnc4)CC[C@@H]23)[C@@]2(C)CCC(=O)C=C12 (stereo partly drawn) [Compound 420, (10R,13S)-6,10,13-trimethyl-17-(pyridin-3-yl)-6,7,8,9,10,11,12,13,14,15,16,17-dodecahydro-1H-cyclopenta[a]phenanthren-3(2H)-one] | 1 to 50 | – | – | IC50 [4, 10]: < 10 nM
CC1C[C@@H]2[C@H](CC[C@]3(C)C(c4cccnc4)CC[C@@H]23)[C@@]2(C)C=CC(=O)C=C12 (stereo partly drawn) [Compound 421, (10R,13S)-6,10,13-trimethyl-17-(pyridin-3-yl)-6,7,8,9,10,11,12,13,14,15,16,17-dodecahydro-3H-cyclopenta[a]phenanthren-3-one] | 1 to 50 | – | – | IC50 [4, 10]: < 10 nM
C[C@]12CCC(=O)C=C1CCC1C2CC[C@]2(C)C(c3cncc(C(F)F)c3)=CCC12 (stereo partly drawn) [Compound 479, (10R,13S)-17-(5-(difluoromethyl)pyridin-3-yl)-10,13-dimethyl-6,7,8,9,10,11,12,13,14,15-decahydro-1H-cyclopenta[a]phenanthren-3(2H)-one] | – | 10 to 50 | > 1000 | –
